The values that follow come from DBAASP.

Test systems include Citrobacter koseri; Escherichia coli BL21; Pseudomonas aeruginosa; Escherichia coli JM109; Salmonella enterica; Staphylococcus xylosus; Escherichia coli MG1655; Vibrio cholerae.
Common to all, as to assay: ≥ marks a high value that may be exact or a test limit, other limits are often not marked, values filed in µg/mL are converted to µM
Test [1] relates to Pseudomonas aeruginosa CIP A22.
Test [2] has as its system Escherichia coli ATCC 54127.
In test [3] the test system is Escherichia coli NCTC 10418.
Test [4] deals with Staphylococcus aureus ATCC 25923.
Test [5] relates to Staphylococcus aureus NCTC 10788.
The subject of test [6] is Pseudomonas aeruginosa ATCC 27853.
Test [7] deals with Escherichia coli ATCC 25922.
Test [8] deals with Staphylococcus aureus CCRC 12652.
Test [9] has as its system Vibrio parahaemolyticus CCRC 10806.
The test system of test [10] is Klebsiella pneumoniae CCRC 10694.
Test [11] concerns Streptococcus alactolyticus.
Test [12] relates to Staphylococcus aureus CCRC 15211.
In test [13] the test system is Salmonella typhimurium CCRC 12947.
The subject of test [14] is Enterococcus faecalis ATCC 29212.
Test [15] has as its system Staphylococcus aureus ATCC 43300.
Test [16] deals with Bacillus subtilis MTCC 14416.
Test [17] deals with Staphylococcus aureus MTCC 9542.
For test [18], the system named is Mycobacterium tuberculosis H37Ra.
Test [19] concerns Bacillus anthracis Sterne 34F2.
Test [20] concerns Haemophilus influenzae ATCC 49247.
Test [21] relates to Pseudomonas aeruginosa 919.
The subject of test [22] is Acinetobacter baumannii ATCC 19606.
For test [23], the system named is Pseudomonas aeruginosa 253.
The test system of test [24] is Klebsiella pneumoniae NCTC 9633.
Test [25] has as its system Pseudomonas aeruginosa 910.
For test [26], the system named is Staphylococcus aureus NRS 72.
Test [27] deals with Staphylococcus aureus USA 300.

Converted amounts (≈) assume the structure as drawn.

`CC[C@H](C)[C@H](NC(=O)[C@H](CC(=O)O)NC(=O)[C@H](CCCCN)NC(=O)[C@H](Cc1c[nH]c2ccccc12)NC(=O)[C@H](CC(C)C)NC(=O)[C@H](C)N)C(=O)N[C@@H](CC(C)C)C(=O)N[C@@H](CCCCN)C(=O)N[C@@H](CC(N)=O)C(=O)N[C@H](C(=O)NCC(=O)N[C@@H](CCCCN)C(=O)N[C@@H](C)C(=O)N[C@@H](C)C(=O)NCC(=O)N[C@@H](CCCCN)C(=O)N[C@@H](C)C(=O)N[C@H](C(=O)N[C@@H](CC(C)C)C(=O)N[C@@H](CC(N)=O)C(=O)N[C@H](C(=O)N[C@H](C(=O)N[C@H](C(=O)N[C@@H](CC(=O)O)C(=O)N[C@@H](CCSC)C(=O)N[C@H](C(=O)N[C@@H](CC(N)=O)C(=O)N[C@@H](CCC(N)=O)C(N)=O)C(C)C)[C@@H](C)O)C(C)C)[C@@H](C)O)C(C)C)C(C)C` [ALWKDILKNVGKAAGKAVLNTVTDMVNQ]: the MIC in test [1] turned out to be 4.6 µM (≈ 13.8 µg/mL); in [2] it was 2.3 µM (≈ 6.89 µg/mL); in [3] it was 5 µM (≈ 15 µg/mL); in test [4], 3 µM (≈ 8.99 µg/mL); in test [5], 3 µM (≈ 8.99 µg/mL); in test [6], 11.6 µM (≈ 34.8 µg/mL). In test [7], this compound registered an MIC of 5 µM (≈ 15 µg/mL).

In the case of `CC[C@H](C)[C@H](N)C(=O)N[C@@H](CCCCN)C(=O)N[C@@H](Cc1c[nH]c2ccccc12)C(=O)N[C@@H](CCCCN)C(=O)N[C@@H](C)C(=O)N[C@H](C(=O)N[C@@H](CC(C)C)C(=O)N[C@@H](CC(=O)O)C(=O)N[C@@H](C)C(=O)N[C@H](C(=O)N[C@@H](CCCCN)C(=O)N[C@@H](CCCCN)C(=O)N[C@H](C(=O)N[C@H](C(N)=O)[C@@H](C)CC)C(C)C)C(C)C)[C@@H](C)CC` [IKWKAILDAVKKVI], the MIC was found to be 2.46 µM (≈ 4 µg/mL) against Citrobacter koseri; 19.7 µM (≈ 32 µg/mL) in test [8]; 4.92 µM (≈ 8 µg/mL) against Escherichia coli BL21; 118 µM (≈ 192 µg/mL) with Pseudomonas aeruginosa; 4.92 µM (≈ 8 µg/mL) with Escherichia coli JM109; 19.7 µM (≈ 32 µg/mL) with Salmonella enterica. The MIC in [9] was 9.85 µM (≈ 16 µg/mL); in test [10] it was 19.7 µM (≈ 32 µg/mL); in the test with Staphylococcus xylosus, 1.23 µM (≈ 2 µg/mL); in [11], 7.38 µM (≈ 12 µg/mL); in test [12], at least 39.4 µM; in [13], 19.7 µM (≈ 32 µg/mL).

Consider `CC[C@H](C)[C@H](NC(=O)[C@H](CCCCN)NC(=O)[C@@H]1CCCN1C(=O)[C@H](CC(C)C)NC(=O)[C@H](Cc1ccccc1)NC(=O)[C@H](CC(N)=O)NC(=O)[C@H](C)NC(=O)[C@H](C)NC(=O)[C@H](CC(C)C)NC(=O)CNC(=O)[C@H](C)NC(=O)[C@H](CC(C)C)NC(=O)[C@H](CC(C)C)NC(=O)[C@@H]1CCCN1C(=O)[C@@H](N)CC(C)C)C(=O)N[C@@H](Cc1ccccc1)C(=O)N[C@@H](CS)C(=O)N[C@@H](CCCCN)C(=O)N[C@H](C(=O)N[C@H](C(=O)N[C@@H](CCCN=C(N)N)C(=O)N[C@@H](CCCCN)C(N)=O)[C@@H](C)O)[C@@H](C)CC` [LPLLAGLAANFLPKIFCKITRK], for which the MIC in the test on Escherichia coli MG1655 turned out to be 2.57 µM (≈ 6.25 µg/mL); in [14], 41.2 µM (≈ 100 µg/mL); in test [15], 20.6 µM (≈ 50 µg/mL); in test [16], 5.15 µM (≈ 12.5 µg/mL); against Vibrio cholerae, 5.15 µM (≈ 12.5 µg/mL); in test [17] it was 2.57 µM (≈ 6.25 µg/mL).

Consider `CC(C)[C@H](NC(=O)[C@H](Cc1c[nH]c2ccccc12)NC(=O)[C@H](CCCN=C(N)N)NC(=O)[C@H](Cc1c[nH]c2ccccc12)NC(=O)[C@H](Cc1c[nH]c2ccccc12)NC(=O)[C@H](CCCN=C(N)N)NC(=O)[C@@H](N)CCCN=C(N)N)C(=O)N[C@H](C(=O)N[C@@H](Cc1c[nH]c2ccccc12)C(N)=O)C(C)C` [RRWWRWVVW], for which the MIC in test [18] was 20 µM (≈ 28.6 µg/mL); in test [19] it was 20 µM (≈ 28.6 µg/mL); in test [20], at least 40 µM; in [21], 2 µM (≈ 2.86 µg/mL); in test [22], 10 µM (≈ 14.3 µg/mL); in test [23] it was 8 µM (≈ 11.4 µg/mL). For the same compound, the MIC in test [24] was 2.5 µM (≈ 3.57 µg/mL); in [25], 8 µM (≈ 11.4 µg/mL); in [26], 20 µM (≈ 28.6 µg/mL); in test [27] it was 20 µM (≈ 28.6 µg/mL).
